Values quoted from earlier work in patent publication US20120277719A1, “COATING COMPOSITIONS, METHODS AND COATED DEVICES” (MASSACHUSETTS INSTITUTE OF TECHNOLOGY, priority 2011, published 2012).

Conditions: reported

- pKa: ~8.5
Structure (SMILES): O=C(OC[C@H]1O[C@@H](OC(=O)c2cc(O)c(O)c(OC(=O)c3cc(O)c(O)c(O)c3)c2)[C@H](OC(=O)c2cc(O)c(O)c(OC(=O)c3cc(O)c(O)c(O)c3)c2)[C@@H](OC(=O)c2cc(O)c(O)c(OC(=O)c3cc(O)c(O)c(O)c3)c2)[C@@H]1OC(=O)c1cc(O)c(O)c(OC(=O)c2cc(O)c(O)c(O)c2)c1)c1cc(O)c(O)c(OC(=O)c2cc(O)c(O)c(O)c2)c1 [Tannic acid, tannic acid]
